Columns and labels:
Format in all cases: functional, cell-based
[1] = Cytotoxicity against human EC9706 cells after 72 hrs by MTT assay; conditions: EC9706, 72 h
[2] = tested on: MCF7; assay: Cytotoxicity against human MCF7 cells after 72 hrs by MTT assay; conditions: MCF7, 72 h
[3] = tested on: SMMC-7721; assay: Cytotoxicity against human SMMC7721 cells after 72 hrs by MTT assay; conditions: SMMC-7721, 72 h
[4] = tested on: MGC-803; assay: Cytotoxicity against human MGC803 cells after 72 hrs by MTT assay; conditions: MGC-803, 72 h

SMILES | IC50 [1] | IC50 [2] | IC50 [3] | IC50 [4]
CCNC(=O)N1CCN(C(=S)SCc2cn(Cc3cc(OC)c(OC)c(OC)c3)nn2)CC1 | > 128 µM | > 128 µM | > 128 µM | 101 µM
O=C(NC1CCCCC1)N1CCN(C(=S)SCc2cn(Cc3ccc(F)cc3)nn2)CC1 | > 128 µM | > 128 µM | > 128 µM | > 128 µM
CC(C)(C)NC(=O)N1CCN(C(=S)SCc2cn(Cc3ccccc3F)nn2)CC1 | 87.8 µM | 18.8 µM | > 128 µM | 40.7 µM
COc1ccc(Cn2cc(CSC(=S)N3CCN(C(=O)NC(C)C)CC3)nn2)cc1 | > 128 µM | 19.6 µM | > 128 µM | 99.2 µM
CCN(C)C(=O)N1CCN(C(=S)SCc2cn(Cc3ccc(Cl)cc3)nn2)CC1 | 17.7 µM | 14.7 µM | 38.2 µM | 4.32 µM
CCNC(=O)N1CCN(C(=S)SCc2cn(Cc3ccc(Cl)cc3)nn2)CC1 | > 128 µM | > 128 µM | > 128 µM | 35.4 µM
CCN(C)C(=O)N1CCN(C(=S)SCc2cn(Cc3ccc(F)cc3)nn2)CC1 | 14.3 µM | 2.15 µM | 23.7 µM | 1.55 µM
NC(=O)N1CCN(C(=S)SCc2cn(Cc3ccc(Cl)cc3)nn2)CC1 | > 128 µM | > 128 µM | > 128 µM | > 128 µM
CCNC(=O)N1CCN(C(=S)SCc2cn(Cc3ccccc3F)nn2)CC1 | 23.7 µM | 5.76 µM | > 128 µM | 2.83 µM
CCN(C)C(=O)N1CCN(C(=S)SCc2cn(Cc3ccc(OC)cc3)nn2)CC1 | > 128 µM | 21.4 µM | > 128 µM | 87.9 µM
CCN(C)C(=O)N1CCN(C(=S)SCc2cn(Cc3ccc(C)cc3)nn2)CC1 | 70.6 µM | 40.1 µM | > 128 µM | 8.27 µM
COc1cc(Cn2cc(CSC(=S)N3CCN(C(=O)NC(C)C)CC3)nn2)cc(OC)c1OC | > 128 µM | > 128 µM | > 128 µM | > 128 µM
CCNC(=O)N1CCN(C(=S)SCc2cn(Cc3ccc(OC)cc3)nn2)CC1 | > 128 µM | 97.6 µM | > 128 µM | > 128 µM
NC(=O)N1CCN(C(=S)SCc2cn(Cc3ccc(F)cc3)nn2)CC1 | 62.7 µM | 22.1 µM | > 128 µM | 9.33 µM
